For assay [1], the target named is BACE1 (Homo sapiens, UniProt P56817). The experiment in a line: In vitro enzymatic BACE FRET (fluorescence resonance energy transfer) assay. Format: biochemical. The gist of the method: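 Fluorescence (ex 488 nm, […]) was read after Tris addition raised pH to neutral, ending a one-hour incubation. Reaction started with 50 nM fluorophore/quencher peptide substrate in pH 4.2 acetate (0.05 M) containing 100 uM genapol and 10% DMSO final.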

Assay [2] relates to Cells stably expressing Amyloid Precursor Protein (APP). The experiment in a line: In vitro BACE cell-based assay (HEK cell assay): Aβ40 in conditioned medium by sandwich ELISA. Particulars: Aβ40 in conditioned medium after 24 h incubation. The gist of the method:
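Secreted Aβ40 was quantified by time-resolved fluorescence sandwich ELISA, capturing with pAb40 for 3 h at 4 °C and detecting with biotinylated 6E10 for 2 h at 4 °C. Media came from APP-expressing cells exposed 24 h to compounds (10-point series from 100 or 10 μM, 0.1% DMSO); IC50 derived from percent of control.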

Sequence of BACE1 (P56817 46-501, species assumed): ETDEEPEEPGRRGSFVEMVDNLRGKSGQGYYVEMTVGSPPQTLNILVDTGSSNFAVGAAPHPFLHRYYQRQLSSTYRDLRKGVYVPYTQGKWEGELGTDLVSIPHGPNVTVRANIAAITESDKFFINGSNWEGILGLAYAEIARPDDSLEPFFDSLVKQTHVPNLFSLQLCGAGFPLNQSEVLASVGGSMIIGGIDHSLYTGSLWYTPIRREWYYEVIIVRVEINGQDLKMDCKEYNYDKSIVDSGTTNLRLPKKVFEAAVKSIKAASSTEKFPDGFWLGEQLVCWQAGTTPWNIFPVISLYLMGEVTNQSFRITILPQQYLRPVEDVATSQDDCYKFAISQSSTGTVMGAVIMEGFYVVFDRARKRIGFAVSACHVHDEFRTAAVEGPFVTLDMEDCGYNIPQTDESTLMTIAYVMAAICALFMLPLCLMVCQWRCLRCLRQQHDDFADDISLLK

One may read the IC50 as the point on the concentration scale where inhibition reaches its midpoint. For `C=CC[C@H](NC(=O)COC)[C@H](O)CN[C@H]1CC2(CCC2)Oc2c1cc(CC(C)(C)C)nc2N1CCCC1` [Example 49, N-((1S)-1-((1R)-2-(((4′S)-6′-(2,2-dimethylpropyl)-8′-(1-pyrrolidinyl)-3′,4′-dihydrospiro[cyclobutane-1,2′-pyrano[2,3-c]pyridin]-4′-yl)amino)-1-hydroxyethyl)-3-buten-1-yl)-2-(methyloxy)acetamide], the IC50 in assay [1] was found to be 84 nM; in assay [2] (Homo sapiens, HEK293, 24 h), 90 nM.
For `C=CC[C@H](NC(=O)c1csc(F)c1)[C@H](O)CN[C@H]1CC2(CCC2)Oc2ncc(CC(C)(C)C)cc21` [Example 135, N-((1S)-1-((1R)-2-(((4′S)-6′-(2,2-dimethylpropyl)-3′,4′-dihydrospiro[cyclobutane-1,2′-pyrano[2,3-b]pyridin]-4′-yl)amino)-1-hydroxyethyl)-3-buten-1-yl)-5-fluoro-3-thiophenecarboxamide], the IC50 in assay [1] turned out to be 137 nM; in assay [2] (Homo sapiens, HEK293, 24 h), 1300 nM.
For the compound `C=CC[C@H](NC(=O)[C@@H](F)c1ccccc1)[C@H](O)CN[C@H]1CC2(CCC2)Oc2ncc(CC(C)(C)C)cc21` [Example 142, (2S)-N-((1S)-1-((1R)-2-(((4′S)-6′-(2,2-dimethylpropyl)-3′,4′-dihydrospiro[cyclobutane-1,2′-pyrano[2,3-b]pyridin]-4′-yl)amino)-1-hydroxyethyl)-3-buten-1-yl)-2-fluoro-2-phenylethanamide], the IC50 was 33 nM in assay [1] and 1560 nM in assay [2] (Homo sapiens, HEK293, 24 h).
For `CC#CC[C@H](NC(C)=O)[C@H](O)CN[C@H]1CC2(CCC2)Oc2ncc(CC(C)(C)C)cc21` [Example 86, N-((1S)-1-((1R)-2-(((4′S)-6′-(2,2-dimethylpropyl)-3′,4′-dihydrospiro[cyclobutane-1,2′-pyrano[2,3-b]pyridin]-4′-yl)amino)-1-hydroxyethyl)-3-pentyn-1-yl)acetamide], in that order: 69 nM and 104 nM.
On to `C=CC[C@H](NC(=O)[C@@H](C)F)[C@H](O)CN[C@H]1CC2(CCC2)Oc2ncc(CC(C)(C)C)cc21.C=CC[C@H](NC(=O)[C@H](C)F)[C@H](O)CN[C@H]1CC2(CCC2)Oc2ncc(CC(C)(C)C)cc21` [Example 148, (2R)-N-((1S)-1-((1R)-2-(((4′S)-6′-(2,2-dimethylpropyl)-3′,4′-dihydrospiro[cyclobutane-1,2′-pyrano[2,3-b]pyridin]-4′-yl)amino)-1-hydroxyethyl)-3-buten-1-yl)-2-fluoropropanamide; (2S)-N-((1S)-1-((1R)-2-(((4′S)-6′-(2,2-dimethylpropyl)-3′,4′-dihydrospiro[cyclobutane-1,2′-pyrano[2,3-b]pyridin]-4′-yl)amino)-1-hydroxyethyl)-3-buten-1-yl)-2-fluoropropanamide], for which the half-maximal inhibitory concentration (IC50) in assay [1] worked out at 70 nM; in assay [2] it was 121 nM.
Regarding `C=CC[C@H](NC(=O)c1ccc(F)cn1)[C@H](O)CN[C@H]1CC2(CCC2)Oc2ncc(CC(C)(C)C)cc21` [Example 62, N-((1S)-1-((1R)-2-(((4′S)-6′-(2,2-dimethylpropyl)-3′,4′-dihydrospiro[cyclobutane-1,2′-pyrano[2,3-b]pyridin]-4′-yl)amino)-1-hydroxyethyl)-3-buten-1-yl)-5-fluoro-2-pyridinecarboxamide], the IC50 in assay [1] is 561 nM; in assay [2] (Homo sapiens, HEK293, 24 h) it was 4980 nM.
For `C=CC[C@H](NC(=O)c1cccc2c1OCO2)[C@H](O)CN[C@H]1CC2(CCC2)Oc2ncc(CC(C)(C)C)cc21` [Example 103, N-((1S)-1-((1R)-2-(((4′S)-6′-(2,2-dimethylpropyl)-3′,4′-dihydrospiro[cyclobutane-1,2′-pyrano[2,3-b]pyridin]-4′-yl)amino)-1-hydroxyethyl)-3-buten-1-yl)-1,3-benzodioxole-4-carboxamide], in that order: 216 nM and 2540 nM.
